Laboratory results as given in article PMC8400343, “Synthesis and Evaluation of the Antidepressant-like Properties of HBK-10, a Novel 2-Methoxyphenylpiperazine Derivative Targeting the 5-HT1A and D2 Receptors” (Pharmaceuticals, 2021).

Columns and labels:
[1] = target: T1, human 5-HT2A receptor (Homo sapiens, UniProt P28223); test: Radioligand binding, [3H]-ketanserin, CHO-K1 membranes; conditions: CHO-K1 cells, mean ± SEM, read-out: Serotonergic pKi 5-HT2A (converted)
T1 construct: expressed in transfected cells; host or cells: CHO-K1 (membranes)
Experimental: (§1) Radioligand binding was performed on membranes from CHO-K1 cells stably transfected with the human 5-HT1A, 5-HT2A, 5-HT6, or 5-HT7 receptors. […] Binding experiments were conducted in 96-well microplates, and the reaction mix included the solution of the test compound, radioligand, and diluted membranes or the tissue suspension.
(§2) The reaction was terminated by rapid filtration through GF/B or GF/C filter mate presoaked with 0.3% polyethyleneimine for 30 min. Ten rapid washes with 200 µl 50 mM Tris buffer (4 °C, pH 7.4) were performed using an automated harvester system Harvester-96 MACH III FM (Tomtec). […] Radioactivity was counted in the MicroBeta2 scintillation counter (PerkinElmer) at approximately 30% efficiency. […] A single assay was performed with each compound concentrations in duplicate, and the whole assay was repeated in a three independent experiments.

[2] = Metabolic stability in mouse liver microsomes (MLMs); format: in vitro ADME
Experimental: Next, the target compound was incubated with mouse liver microsomes in the presence of an NADPH regenerating system. In the initial screening phase, the percentage of the parent compound recovered after 30 min of incubation was calculated (Table 2). […] The assay was performed with mouse liver microsomes from male CD-1. […] Metabolic reactions were initiated by the addition of the NADPH regenerating system, containing NADP, glucose-6-phosphate, and glucose-6-phosphate dehydrogenase. […] Enzymatic reactions were quenched by perchloric acid followed by addition of internal standard (pentoxifylline). Negative controls were performed without NADPH-regenerating system. After centrifugation, samples were analyzed by LC/MS (UPLC/MS, Waters Corporation, Milford, MA, USA). In vitro half time (t1/2) and intrinsic clearance (Clint) of test compound in liver microsomes were determined according to literature procedures.

[3] = target: T2, human 5-HT6 receptor (Homo sapiens, UniProt P50406); test: Radioligand binding, [3H]-LSD, CHO-K1 membranes; conditions: CHO-K1 cells, mean ± SEM, read-out: Serotonergic pKi 5-HT6 (converted)
T2 construct: expressed in transfected cells; host or cells: CHO-K1 (membranes)
Experimental: as §1, §2

[4] = target: T3, human 5-HT1A receptor (Homo sapiens, UniProt P08908); test: Radioligand binding, [3H]8-OH-DPAT, CHO-K1 membranes; conditions: CHO-K1 cells, mean ± SEM, read-out: Serotonergic pKi 5-HT1A (converted)
T3 construct: expressed in transfected cells; host or cells: CHO-K1 (membranes)
T3 sequence (P08908 1-422): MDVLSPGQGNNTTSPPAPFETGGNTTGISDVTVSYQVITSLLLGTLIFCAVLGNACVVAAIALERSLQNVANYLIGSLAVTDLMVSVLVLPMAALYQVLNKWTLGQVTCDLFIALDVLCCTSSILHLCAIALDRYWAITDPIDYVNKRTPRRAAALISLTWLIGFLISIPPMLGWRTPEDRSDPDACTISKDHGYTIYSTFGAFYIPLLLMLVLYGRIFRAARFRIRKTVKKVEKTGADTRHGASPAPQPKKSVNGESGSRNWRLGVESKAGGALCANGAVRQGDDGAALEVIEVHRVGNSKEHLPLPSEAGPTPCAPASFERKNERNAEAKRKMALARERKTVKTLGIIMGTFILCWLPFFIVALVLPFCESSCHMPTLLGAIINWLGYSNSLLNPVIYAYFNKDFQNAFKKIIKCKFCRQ
Experimental: as §1, §2

[5] = Spontaneous locomotor activity in mice; format: in vivo, mouse; conditions: mouse, in vivo; ip, mice; read-out: ED50 (locomotor activity, sedative effect)
Experimental: (§3) The locomotor activity of mice was measured as previously described. We used photoresistor actometers (Ugo Basile, Italy) connected to a counter for the recording of light-beam interruptions. Mice were placed individually in cages for 30 min, and the number of crossings of the light beams was recorded as the locomotor activity for 4 min.

[6] = tested on: mice; test: Spontaneous locomotor activity in mice; format: in vivo, mouse; conditions: for Number of Crossings ± SEM: 4 min
Experimental: as §3

[7] = Rotarod test in mice; format: in vivo, mouse; conditions: mouse, in vivo; ip, log-probit method
Experimental: (§4) This experimental procedure was described in detail in our earlier studies. Briefly, mice were trained on the rotarod apparatus (May Commat RR0711, Turkey; rod diameter: 2 cm) every day for 3 consecutive days. During each training session, mice were placed for 3 min on the rotating rod (24 rpm, constant speed) with an unlimited number of trials. The experiment was performed 24 h after the last training session. On the test day, mice were injected with HBK-10, and 30 min after the administration tested on the rotarod (24 rpm, constant speed). Motor impairment was regarded as the inability to remain on the rotating rod for 60 s and was expressed as the % of animals that fell off the rotating rod.

[8] = tested on: mice; test: Rotarod test in mice; format: in vivo, mouse
Experimental: as §4

[9] = tested on: mice; test: Tail suspension test in mice; format: in vivo, mouse; conditions: 30 min before test
Experimental: Adult male Albino-Swiss mice (CD-1, 8 weeks old, 18–21g: Jagiellonian University Medical College, Krakow, Poland) were used in all experiments. Unless stated otherwise, the animals were kept in groups of 10 mice in standard cages (37 cm × 21 cm × 15 cm) at a room temperature (22 ± 2 °C), on a 12 h light/dark cycle (lights on 7:00) with ad libitum access to food and water. Mice were used only once in each test. Behavioral experiments were performed between 8 am and 4 pm and evaluated by a trained observer blind to the treatments. Mice were handled for 1 week before starting the experimental procedures. Animals were randomly allocated to the treatment using a computer-generated sequence, and researchers making measurements on the animals or analyzing the results were blind to the allocation. Moreover, experimental groups were distributed across multiple cages, and the location of the mouse cages in the room was changed following each day. […]
The experiment was carried out in mice according to the method described by Steru et al. and as previously described. […] The total time of immobility was measured during the 6-min test period. […] The experiments were video-recorded and scored using elevenmaze.com software by a trained observer blind to the treatments.

T1 sequence (P28223 whole entry): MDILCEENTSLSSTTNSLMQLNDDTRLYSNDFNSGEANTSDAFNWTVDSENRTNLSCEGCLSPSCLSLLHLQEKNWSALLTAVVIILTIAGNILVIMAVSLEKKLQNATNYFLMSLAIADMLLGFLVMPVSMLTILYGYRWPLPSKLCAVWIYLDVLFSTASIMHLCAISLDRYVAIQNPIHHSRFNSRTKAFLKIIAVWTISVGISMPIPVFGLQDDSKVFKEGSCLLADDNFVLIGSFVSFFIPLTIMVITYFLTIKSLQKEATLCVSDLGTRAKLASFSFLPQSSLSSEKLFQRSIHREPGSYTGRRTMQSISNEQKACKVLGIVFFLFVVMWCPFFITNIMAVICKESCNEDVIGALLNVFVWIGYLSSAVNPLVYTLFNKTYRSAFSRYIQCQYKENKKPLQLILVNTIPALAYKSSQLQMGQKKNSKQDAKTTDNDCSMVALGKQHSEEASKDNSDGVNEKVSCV
T2 sequence (P50406 whole entry): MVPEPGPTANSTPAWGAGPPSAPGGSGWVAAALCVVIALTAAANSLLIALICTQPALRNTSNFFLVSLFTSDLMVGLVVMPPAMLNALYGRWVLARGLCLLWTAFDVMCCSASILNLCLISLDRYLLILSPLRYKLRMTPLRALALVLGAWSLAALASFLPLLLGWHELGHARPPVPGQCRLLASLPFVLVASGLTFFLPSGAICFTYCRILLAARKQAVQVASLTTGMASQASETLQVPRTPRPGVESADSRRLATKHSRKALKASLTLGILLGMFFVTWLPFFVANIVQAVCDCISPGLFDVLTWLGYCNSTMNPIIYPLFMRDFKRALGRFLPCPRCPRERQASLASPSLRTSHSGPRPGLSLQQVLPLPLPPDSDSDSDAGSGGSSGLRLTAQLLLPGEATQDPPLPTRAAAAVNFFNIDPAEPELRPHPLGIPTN

SMILES: CCC(CN1CCN(c2ccccc2OC)CC1)NCCCOc1c(C)cccc1C.Cl.Cl (stereo not shown) [HBK-10, N-(3-(2,6-dimethylphenoxy)propyl)-1-(4-(2-methoxyphenyl)piperazin-1-yl)butan-2-amine dihydrochloride]
- Ki [1]: 191 nM
- Recovery percent of parent compound after 30 min, fold higher than buspirone [2]: more than 100 fold
- half-life at 20 µM ([2]; male, CD-1, mouse, liver microsomes, pH 7.4, protein concentration 0.8): 25 min
- remaining at 0.5 h, 20 µM ([2]; male, CD-1, mouse, liver microsomes, pH 7.4, protein concentration 0.8, NADPH regenerating system, read-out: % Remaining after 30 min): 36%
- microsomal CLint at 20 µM ([2]; male, CD-1, mouse, liver microsomes, pH 7.4, protein concentration 0.8, read-out: Intrinsic Clearance (Clint)): 34.6 µL/min/mg
- Ki [3]: 3720 nM
- Ki [4]: 5.13 nM
- ED50 at 4 min [5]: 32.3 mg/kg
- Number of Crossings ± SEM ([6]; 10 mg/kg ip): 355.1 ± 49.92
- Number of Crossings ± SEM ([6]; 20 mg/kg ip): 329.8 ± 34.52
- Number of Crossings ± SEM ([6]; 40 mg/kg ip): 155.4 ± 29.59
- Number of Crossings ± SEM ([6]; 60 mg/kg ip): 22.17 ± 2.03
- ED50 for sedative effect, fold higher than the lowest antidepressant-like dose ([6]; mouse, in vivo): approximately 26 fold
- TD50 at 30 min [7]: 44.3 mg/kg
- % of Animals That Fell from Rotating Rod ([8]; 40 mg/kg ip): 29%
- % of Animals That Fell from Rotating Rod ([8]; 45 mg/kg ip): 63%
- % of Animals That Fell from Rotating Rod ([8]; 60 mg/kg ip): 86%
- Reduction of immobility in the tail suspension test ([9]; 5 mg/kg ip): 54.5%
- Reduction of immobility in the tail suspension test ([9]; 10 mg/kg ip): 42%
